Laboratory results taken from patent publication US9370515B2, “Mixed lineage kinase inhibitors and method of treatments” (CALIFIA BIO, INC., priority 2013, dated 2016).

Molecular target: MLK-3 (Homo sapiens, UniProt Q16584)
Assay: Biochemical assay for the inhibition of kinase activity for MLK-3 (33P-ATP, HOTSPOT filter binding)
Conditions: activated MLK-3 20 nM, ATP 50 μM, myelin basic protein 20 μM, 20 minutes room temperature
Protocol: Biochemical Assay for the Inhibition of Kinase Activity for MLK-3: Myelin basic protein (20 μM final concentration) is dissolved in 20 mM Hepes (pH 7.5) containing […], […], 0.02% Brij35, 0.02 mg/ml BSA, 0.1 μM Na3VO4, 2 mM DTT, and 1% DMSO. Activated MLK-3 is added and mixed (20 nM final concentration), and inhibitors are added in DMSO. ^33P-ATP (specific activity 500 μCi/μL) is delivered into the reaction mixture to initiate the reaction (ATP concentration is 50 μM) and the mixture is incubated at room temperature for 20 minutes. % Activity is determined using a proprietary HOTSPOT™ microfluidic filter binding technology. See, Expert Opin. Drug Discov. 2008 June; 3(6): 607-621.

Chain of MLK-3 (Q16584 whole entry): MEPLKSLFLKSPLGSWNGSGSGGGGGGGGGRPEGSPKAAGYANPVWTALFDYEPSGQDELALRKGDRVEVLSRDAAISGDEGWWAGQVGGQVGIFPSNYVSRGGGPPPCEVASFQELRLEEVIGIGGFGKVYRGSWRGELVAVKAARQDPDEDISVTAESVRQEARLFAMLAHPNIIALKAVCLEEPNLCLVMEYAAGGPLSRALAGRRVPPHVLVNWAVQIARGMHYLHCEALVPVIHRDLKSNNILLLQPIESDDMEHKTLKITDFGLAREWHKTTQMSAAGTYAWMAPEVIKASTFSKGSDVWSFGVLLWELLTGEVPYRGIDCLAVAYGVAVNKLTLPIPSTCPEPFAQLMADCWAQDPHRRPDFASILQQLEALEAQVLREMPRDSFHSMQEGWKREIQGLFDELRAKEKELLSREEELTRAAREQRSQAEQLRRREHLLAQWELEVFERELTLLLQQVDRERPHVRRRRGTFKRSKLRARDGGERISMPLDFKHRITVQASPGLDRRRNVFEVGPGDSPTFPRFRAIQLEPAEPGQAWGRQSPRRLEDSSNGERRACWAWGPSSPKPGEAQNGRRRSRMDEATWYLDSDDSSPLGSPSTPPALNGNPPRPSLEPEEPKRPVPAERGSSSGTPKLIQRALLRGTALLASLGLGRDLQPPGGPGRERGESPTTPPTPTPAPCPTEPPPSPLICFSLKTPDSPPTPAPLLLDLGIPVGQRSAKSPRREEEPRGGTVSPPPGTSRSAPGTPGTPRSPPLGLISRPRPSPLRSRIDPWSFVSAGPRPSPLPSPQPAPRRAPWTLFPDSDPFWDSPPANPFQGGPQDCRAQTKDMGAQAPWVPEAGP

Compound	IC50 [nM]
O[C@H]1CC[C@H](Nc2ccc3ncc(-c4cc5cccnc5s4)n3n2)CC1 [Compound 205, trans-4-(3-(thieno[2,3-b]pyridin-2-yl)imidazo[1,2-b]pyridazin-6-ylamino)cyclohexanol]	100 to 500
CCOc1cccc2cc(-c3cnc4ccc(Nc5ccc(OC)c(OC)c5)nn34)sc12 [Compound 186, 3-(7-ethoxybenzo[b]thiophen-2-yl)-N-(3,4-dimethoxyphenyl)imidazo[1,2-b]pyridazin-6-amine]	100 to 500
OCC1CCCN(c2ccc3ncc(-c4cc5ccccc5s4)n3n2)C1 (stereo not shown) [Compound 132, (1-(3-(benzo[b]thiophen-2-yl)imidazo[1,2-b]pyridazin-6-yl)piperidin-3-yl)methanol]	500 to 1000
CO[C@H]1CC[C@H](Nc2ccc3ncc(-c4cc5cncc(C)c5s4)n3n2)CC1 [Compound 216]	100 to 500
COc1ccc(Nc2ccc3ncc(-c4cc(OC)c(OC)c(OC)c4)n3n2)cc1OC [Compound 11, 3-(3,4,5-trimethoxyphenyl)-N-(3,4-dimethoxyphenyl)imidazo[1,2-b]pyridazin-6-amine]	< 5000
CCCOc1ccc(Nc2ccc3ncc(-c4cc5cccc(OC)c5s4)n3n2)cc1OC [Compound 182, N-(3-methoxy-4-propoxyphenyl)-3-(7-methoxybenzo[b]thiophen-2-yl)imidazo[1,2-b]pyridazin-6-amine]	< 5000
COc1ccc(Nc2ccc3ncc(-c4cc5ccccc5s4)n3n2)cc1O [Compound 31, 5-(3-(benzo[b]thiophen-2-yl)imidazo[1,2-b]pyridazin-6-ylamino)-2-methoxyphenol]	< 5000
COc1cccc2cc(-c3cnc4ccc(N[C@H]5CC[C@H](O)CC5)nn34)[nH]c12 [Compound 87, trans-4-(3-(7-methoxy-1H-indol-2-yl)imidazo[1,2-b]pyridazin-6-ylamino)cyclohexanol]	< 100

Now from value to compound:

IC50 [nM]	Compound
500 to 1000	CCCOc1cccc2cc(-c3cnc4ccc(Nc5ccc(OC)c(OC)c5)nn34)sc12 [Compound 81, N-(3,4-dimethoxyphenyl)-3-(7-propoxybenzo[b]thiophen-2-yl)imidazo[1,2-b]pyridazin-6-amine]
100 to 500	COc1ccc(Nc2ccc3ncc(-c4cc5cccc(OC(C)=O)c5s4)n3n2)cc1OC [Compound 78, 2-(6-(3,4-dimethoxyphenylamino)imidazo[1,2-b]pyridazin-3-yl)benzo[b]thiophen-7-yl acetate]
< 5000	COc1ccc(Nc2ccc3ncc(-c4cc5cccc(C)c5[nH]4)n3n2)cc1OC [Compound 195, N-(3,4-dimethoxyphenyl)-3-(7-methyl-1H-indol-2-yl)imidazo[1,2-b]pyridazin-6-amine]
< 5000	COc1ccc(Nc2ccc3ncc(-c4cc5ncccc5s4)n3n2)cc1OC [Compound 208, N-(3,4-dimethoxyphenyl)-3-(thieno[3,2-b]pyridin-2-yl)imidazo[1,2-b]pyridazin-6-amine]
< 100	COc1cc2cc(-c3cnc4ccc(-c5ccc6[nH]ccc6c5)nn34)sc2cc1OC [Compound 69, 6-(1H-indol-5-yl)-3-(5,6-dimethoxybenzo[b]thiophen-2-yl)imidazo[1,2-b]pyridazine]
100 to 500	COc1cc(Nc2ccc3ncc(-c4cc5ccccc5s4)n3n2)ccc1OCCCO [Compound 27, 3-(4-(3-(benzo[b]thiophen-2-yl)imidazo[1,2-b]pyridazin-6-ylamino)-2-methoxyphenoxy)propan-1-ol]
100 to 500	COc1cc2sc(-c3cnc4ccc(N[C@H]5CC[C@H](O)CC5)nn34)cc2c(OC)c1OC [Compound 176, trans-4-(3-(4,5,6-trimethoxybenzo[b]thiophen-2-yl)imidazo[1,2-b]pyridazin-6-ylamino)cyclohexanol]
100 to 500	Cc1cccc2cc(-c3cnc4ccc(N[C@H]5CC[C@H](O)CC5)nn34)sc12 [Compound 203, trans-4-(3-(7-methylbenzo[b]thiophen-2-yl)imidazo[1,2-b]pyridazin-6-ylamino)cyclohexanol]
